The values that follow come from patent US9371281B2, “Indole derivatives as inhibitors of histone deacetylase” (Pharmacyclics LLC, priority 2006, dated 2016).

The structures appear in SMILES notation. Where only a bound is given, the exact number is not on record here.

What is called IC50 is the concentration at which inhibition is half-maximal. A lower IC50 goes with greater potency.

One assay addresses T1, HDAC8 (Homo sapiens, UniProt Q9BY41).
T1 sequence (Q9BY41 1-377): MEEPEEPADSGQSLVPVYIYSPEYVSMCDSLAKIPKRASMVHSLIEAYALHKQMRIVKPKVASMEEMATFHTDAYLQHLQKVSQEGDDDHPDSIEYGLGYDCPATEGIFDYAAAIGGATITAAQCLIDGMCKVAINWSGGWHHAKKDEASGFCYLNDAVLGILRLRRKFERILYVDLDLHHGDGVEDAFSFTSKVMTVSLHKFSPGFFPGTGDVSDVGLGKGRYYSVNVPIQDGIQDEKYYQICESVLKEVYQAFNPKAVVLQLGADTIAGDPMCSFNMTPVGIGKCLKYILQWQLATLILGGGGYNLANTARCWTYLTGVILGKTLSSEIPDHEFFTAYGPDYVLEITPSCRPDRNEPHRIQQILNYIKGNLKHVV
In words: Inhibition of HDAC8 deacetylase activity in vitro. Type of assay: biochemical.

For another assay, the target named is HDAC1 (Homo sapiens, UniProt Q13547). In words: Inhibition of HDAC1 deacetylase activity in vitro. It counts as biochemical. To be noted: ratio of IC50 values.
Chain of HDAC1 (Q13547 whole entry): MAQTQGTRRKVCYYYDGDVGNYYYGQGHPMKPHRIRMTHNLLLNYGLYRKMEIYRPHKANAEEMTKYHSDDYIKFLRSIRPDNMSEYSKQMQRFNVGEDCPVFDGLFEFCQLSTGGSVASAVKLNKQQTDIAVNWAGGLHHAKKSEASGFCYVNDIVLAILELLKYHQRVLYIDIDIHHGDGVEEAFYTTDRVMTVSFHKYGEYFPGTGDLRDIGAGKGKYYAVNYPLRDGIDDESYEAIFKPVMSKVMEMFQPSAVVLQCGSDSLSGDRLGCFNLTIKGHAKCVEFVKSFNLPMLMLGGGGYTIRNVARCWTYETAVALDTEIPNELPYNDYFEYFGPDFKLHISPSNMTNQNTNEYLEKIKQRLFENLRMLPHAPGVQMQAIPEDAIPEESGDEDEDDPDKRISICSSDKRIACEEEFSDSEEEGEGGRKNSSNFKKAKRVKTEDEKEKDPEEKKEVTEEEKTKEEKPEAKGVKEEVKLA

As for `O=C(NO)c1ccc2ccn(Cc3ccc(Cl)c(Cl)c3)c2c1` [Compound 1, 1-(3,4-dichloro-phenylmethyl)-1H-indole-6-carboxylic acid hydroxyamide], the IC50 against HDAC8 is < 100 nM. Also, the HDAC-1/HDAC-8 result on HDAC1 is “A (A >10 and <100)”.
On to `Cc1ccccc1Cn1ccc2ccc(C(=O)NO)cc21` [Compound 2, 1-(2-methyl-phenylmethyl)-1H-indole-6-carboxylic acid hydroxyamide], for which the IC50 against HDAC8 is < 100 nM. Also, on HDAC1, the HDAC-1/HDAC-8 result is “A (A >10 and <100)”.
Turning to `COc1cc(Cn2ccc3ccc(C(=O)NO)cc32)cc(OC)c1OC` [Compound 3, 1-(3,4,5-trimethoxy-phenylmethyl)-1H-indole-6-carboxylic acid hydroxyamide], the IC50 at HDAC8 was > 100 nM. Further, at HDAC1, the HDAC-1/HDAC-8 result was “A (A >10 and <100)”.
As to `O=C(NO)c1ccc2ccn(Cc3cccc(F)c3)c2c1` [Compound 4, 1-(3-fluoro-phenylmethyl)-1H-indole-6-carboxylic acid hydroxyamide], the IC50 against HDAC8 was < 100 nM. The HDAC-1/HDAC-8 entry on HDAC1 is “A (A >10 and <100)”.
Take `Cc1cccc(Cn2ccc3ccc(C(=O)NO)cc32)c1` [Compound 5, 1-(3-methyl-phenylmethyl)-1H-indole-6-carboxylic acid hydroxyamide]: the IC50 against HDAC8 was < 100 nM. For the same compound, the HDAC-1/HDAC-8 entry at HDAC1 is “A (A >10 and <100)”.
Consider `O=C(NO)c1ccc2ccn(Cc3ccccc3)c2c1` [Compound 6, 1-(benzyl)-1H-indole-6-carboxylic acid hydroxyamide], for which the IC50 against HDAC8 was < 100 nM. Also, the HDAC-1/HDAC-8 result on HDAC1 was “A (A >10 and <100)”.
As to `COc1cc(Cn2ccc3ccc(C(=O)NO)cc32)cc(OC)c1` [Compound 7, 1-(3,5-dimethoxy-phenylmethyl)-1H-indole-6-carboxylic acid hydroxyamide], on HDAC8, the IC50 was < 100 nM. The HDAC-1/HDAC-8 result on HDAC1 is “A (A >10 and <100)”.
On to `CC(c1ccccc1)n1ccc2ccc(C(=O)NO)cc21` (stereo not drawn) [Compound 8, 1-(1-methyl-1-phenylmethyl)-1H-indole-6-carboxylic acid hydroxyamide], for which the IC50 against HDAC8 is < 100 nM. Further, the HDAC-1/HDAC-8 result on HDAC1 is “A (A >10 and <100)”.
On to `O=C(NO)c1ccc2ccn(Cc3ccc(F)cc3)c2c1` [Compound 9, 1-(4-fluoro-phenylmethyl)-1H-indole-6-carboxylic acid hydroxyamide], for which the IC50 against HDAC8 was < 100 nM. For the same compound, the HDAC-1/HDAC-8 result at HDAC1 was “A (A >10 and <100)”.
Turning to `O=C(NO)c1ccc2ccn(Cc3ccccc3F)c2c1` [Compound 10, 1-(2-fluoro-phenylmethyl)-1H-indole-6-carboxylic acid hydroxyamide], the IC50 against HDAC8 was < 100 nM. Besides, on HDAC1, the HDAC-1/HDAC-8 result is “A (A >10 and <100)”.
Turning to `O=C(NO)c1ccc2ccn(Cc3ccccc3Cl)c2c1` [Compound 11, 1-(2-chloro-phenylmethyl)-1H-indole-6-carboxylic acid hydroxyamide], the IC50 at HDAC8 was < 100 nM. The HDAC-1/HDAC-8 result at HDAC1 is “A (A >10 and <100)”.
As for `COc1cccc(Cn2ccc3ccc(C(=O)NO)cc32)c1` [Compound 12, 1-(3-methoxy-phenylmethyl)-1H-indole-6-carboxylic acid hydroxyamide], the IC50 at HDAC8 was < 100 nM. Besides, the HDAC-1/HDAC-8 result at HDAC1 was “A (A >10 and <100)”.
Consider `O=C(NO)c1ccc2ccn(Cc3ccc4ccccc4c3)c2c1` [Compound 13, 1-(naphth-2-ylmethyl)-1H-indole-6-carboxylic acid hydroxyamide], for which the IC50 against HDAC8 was < 100 nM. For the same compound, at HDAC1, the HDAC-1/HDAC-8 entry was “A (A >10 and <100)”.
With `O=C(NO)c1ccc2ccn(CCCc3ccccc3)c2c1` [Compound 14, 1-(3-phenylpropyl)-1H-indole-6-carboxylic acid hydroxyamide], the IC50 against HDAC8 was < 100 nM. In addition, the HDAC-1/HDAC-8 result on HDAC1 was “A (A >10 and <100)”.
With `O=C(NO)c1ccc2ccn(CC3CCCCC3)c2c1` [Compound 15, 1-(cyclohexylmethyl)-1H-indole-6-carboxylic acid hydroxyamide], the IC50 at HDAC8 was < 100 nM. Moreover, the HDAC-1/HDAC-8 entry on HDAC1 was “A (A >10 and <100)”.
